Measured values published in ChEMBL document CHEMBL1141089, “Conformationally restricted homotryptamines. 2. Indole cyclopropylmethylamines as selective serotonin reuptake inhibitors” (J Med Chem, 2005).
pKi: −log10 of the molar value. Several values for one entry are separate records, joined by “and”; a condition that tells them apart may be missing. Identical values can stand only once.

How the values were obtained:
[1] = target: T1, Sodium-dependent serotonin transporter (Homo sapiens, UniProt P31645); assay: Binding inhibition towards human serotonin transporter
[2] = target: T2, Sodium-dependent dopamine transporter (Homo sapiens, UniProt Q01959); assay: Binding inhibition towards human dopamine transporter at 1 uM
[3] = target: T3, Sodium-dependent noradrenaline transporter (Homo sapiens, UniProt P23975); assay: Binding inhibition towards human norepinephrine transporter at 1 uM
[4] = target: T3, Sodium-dependent noradrenaline transporter; assay: In vitro binding affinity towards human norepinephrine transporter
[5] = target: T1, Sodium-dependent serotonin transporter; assay: In vitro binding inhibition towards human serotonin transporter
[6] = target: T2, Sodium-dependent dopamine transporter; assay: Binding inhibition towards human dopamine transporter

T1 sequence (P31645 whole entry): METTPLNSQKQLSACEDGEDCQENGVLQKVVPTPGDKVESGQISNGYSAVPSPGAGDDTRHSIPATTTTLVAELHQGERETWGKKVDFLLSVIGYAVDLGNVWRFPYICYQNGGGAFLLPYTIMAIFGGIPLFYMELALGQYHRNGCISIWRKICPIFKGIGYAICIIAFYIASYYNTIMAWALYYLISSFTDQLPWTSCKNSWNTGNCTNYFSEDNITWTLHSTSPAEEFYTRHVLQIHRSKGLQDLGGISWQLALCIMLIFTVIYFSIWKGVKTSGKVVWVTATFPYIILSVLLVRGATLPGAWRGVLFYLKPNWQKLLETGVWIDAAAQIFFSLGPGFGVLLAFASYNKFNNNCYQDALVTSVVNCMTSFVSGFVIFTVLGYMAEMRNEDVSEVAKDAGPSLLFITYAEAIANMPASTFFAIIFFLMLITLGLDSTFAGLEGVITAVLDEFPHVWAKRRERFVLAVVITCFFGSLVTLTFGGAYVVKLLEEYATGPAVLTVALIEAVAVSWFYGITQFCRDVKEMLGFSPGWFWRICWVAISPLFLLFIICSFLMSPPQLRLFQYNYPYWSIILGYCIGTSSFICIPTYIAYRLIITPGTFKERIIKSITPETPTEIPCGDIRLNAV
T2 sequence (Q01959 whole entry): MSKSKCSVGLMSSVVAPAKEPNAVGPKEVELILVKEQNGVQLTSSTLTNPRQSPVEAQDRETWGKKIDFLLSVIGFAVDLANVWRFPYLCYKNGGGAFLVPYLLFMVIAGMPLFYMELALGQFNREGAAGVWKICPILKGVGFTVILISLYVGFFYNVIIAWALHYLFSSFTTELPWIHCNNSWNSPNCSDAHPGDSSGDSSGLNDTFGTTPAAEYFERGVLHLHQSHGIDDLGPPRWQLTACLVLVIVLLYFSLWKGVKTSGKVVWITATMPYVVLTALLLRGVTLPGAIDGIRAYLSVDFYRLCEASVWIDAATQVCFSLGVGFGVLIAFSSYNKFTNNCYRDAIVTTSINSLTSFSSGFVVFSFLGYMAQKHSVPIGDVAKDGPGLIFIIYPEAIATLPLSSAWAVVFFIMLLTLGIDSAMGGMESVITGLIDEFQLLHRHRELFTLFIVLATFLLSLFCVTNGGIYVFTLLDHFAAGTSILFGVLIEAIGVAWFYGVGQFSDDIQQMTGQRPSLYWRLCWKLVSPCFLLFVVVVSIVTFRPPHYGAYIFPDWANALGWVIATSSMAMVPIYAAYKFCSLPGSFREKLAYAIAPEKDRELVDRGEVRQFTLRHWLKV
T3 sequence (P23975 whole entry): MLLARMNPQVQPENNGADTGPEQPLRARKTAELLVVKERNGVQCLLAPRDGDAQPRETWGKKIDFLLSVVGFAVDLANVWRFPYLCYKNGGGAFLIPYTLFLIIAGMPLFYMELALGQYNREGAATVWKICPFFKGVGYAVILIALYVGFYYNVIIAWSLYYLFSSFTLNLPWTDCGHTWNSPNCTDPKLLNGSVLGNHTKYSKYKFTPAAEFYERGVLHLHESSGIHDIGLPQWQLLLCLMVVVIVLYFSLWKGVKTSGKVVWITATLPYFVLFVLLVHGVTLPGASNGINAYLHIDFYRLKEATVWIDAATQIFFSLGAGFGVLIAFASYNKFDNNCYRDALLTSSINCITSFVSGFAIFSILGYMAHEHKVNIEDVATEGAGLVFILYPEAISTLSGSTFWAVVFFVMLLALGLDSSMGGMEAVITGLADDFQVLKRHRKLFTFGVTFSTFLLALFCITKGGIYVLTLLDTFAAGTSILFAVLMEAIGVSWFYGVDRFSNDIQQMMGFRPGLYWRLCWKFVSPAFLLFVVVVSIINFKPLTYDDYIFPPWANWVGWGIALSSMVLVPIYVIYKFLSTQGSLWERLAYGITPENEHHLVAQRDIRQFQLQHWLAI

| SMILES | pKi [1] | inhibition [2] [%] | inhibition [3] [%] | pKi [4] | pKi [5] | pKi [6] |
| --- | --- | --- | --- | --- | --- | --- |
| CN(C)C[C@@H]1C[C@@H]1c1c[nH]c2ccc(F)cc12 (stereo in doubt; 16e) [listing 1 of 2 here] | 7.62 | – | – | – | – | – |
| CN(C)C[C@H]1C[C@@H]1c1cn(C)c2ccc(C#N)cc12 | 8.19 | < 50 | < 50 | – | – | – |
| CN(C)C[C@H]1C[C@@H]1c1c[nH]c2cc(F)ccc12 (racemic) | 7.42 | < 50 | < 50 | – | – | – |
| CN(C)C[C@@H]1C[C@@H]1c1c[nH]c2ccc(C#N)cc12 [listing 1 of 3 here] | – | < 50 | < 50 | – | – | – |
| CN(C)C[C@@H]1C[C@@H]1c1c[nH]c2ccc(C#N)cc12 [listing 2 of 3 here] | 8.15 | – | – | – | – | – |
| CN(C)C[C@@H]1C[C@@H]1c1c[nH]c2ccc(F)cc12 (stereo in doubt; (-)-16e) [listing 1 of 2 here] | 7.85 | – | – | – | – | – |
| CN(C)C[C@H]1C[C@@H]1c1c[nH]c2ccc(F)cc12 (racemic) [listing 1 of 2 here] | – | < 50 | < 50 | – | – | – |
| CN(C)C[C@H]1C[C@@H]1c1c[nH]c2ccc(F)cc12 [listing 1 of 2 here] | 9.17 | – | – | – | – | – |
| CN(C)C[C@H]1C[C@H]1c1c[nH]c2ccc(C#N)cc12 | 8.24 | < 50 | < 50 | – | – | – |
| CN(C)CCCc1c[nH]c2ccc(C#N)cc12 | 8.70 | < 50 | < 50 | – | – | – |
| CN(C)CCCc1c[nH]c2ccc(F)cc12 | 8.40 | < 50 | < 50 | – | – | – |
| CN(C)C[C@H]1C[C@@H]1c1c[nH]c2c(C#N)cccc12 (racemic) | 9.24 | < 50 | < 50 | – | – | – |
| CN(C)C[C@H]1C[C@@H]1c1c[nH]c2ccc(F)cc12 [listing 2 of 2 here] | – | < 50 | < 50 | – | – | – |
| CCn1cc([C@H]2C[C@@H]2CN(C)C)c2cc(C#N)ccc21 | 8.74 | < 50 | < 50 | – | – | – |
| CN(C)C[C@H]1C[C@@H]1c1c[nH]c2ccc(C#N)cc12 (racemic) [listing 1 of 2 here] | – | < 50 | < 50 | – | – | – |
| CN(C)C[C@H]1C[C@@H]1c1c[nH]c2ccc(C#N)cc12 | – | – | – | 5.34 | 9.74 | 5.68 |
| CN(C)C[C@@H]1C[C@H]1c1c[nH]c2ccc(C#N)cc12 | 8.05 | < 50 | < 50 | – | – | – |
| CN(C)C[C@H]1C[C@@H]1c1c[nH]c2ccc(C#N)cc12 (racemic) [listing 2 of 2 here] | 9.25 | – | – | – | – | – |
| CN(C)C[C@H]1C[C@H]1c1c[nH]c2ccc(F)cc12 | 7.00 | – | – | – | – | – |
| CN(C)C[C@@H]1C[C@H]1c1c[nH]c2ccc(F)cc12 | 7.39 | < 50 | < 50 | – | – | – |
| CN(C)C[C@@H]1C[C@@H]1c1c[nH]c2ccc(F)cc12 (stereo in doubt; 16e) [listing 2 of 2 here] | – | < 50 | < 50 | – | – | – |
| CN(C)C[C@@H]1C[C@@H]1c1c[nH]c2ccc(F)cc12 (stereo in doubt; (-)-16e) [listing 2 of 2 here] | – | < 50 | < 50 | – | – | – |
| CN(C)C[C@H]1C[C@@H]1c1c[nH]c2cc(C#N)ccc12 (racemic) | 8.13 | < 50 | < 50 | – | – | – |
| CN(C)C[C@H]1C[C@@H]1c1c[nH]c2ccc(F)cc12 (racemic) [listing 2 of 2 here] | 8.68 | – | – | – | – | – |
| CN(C)C[C@H]1C[C@@H]1c1c[nH]c2cccc(C#N)c12 (racemic) | 6.64 and 6.38 | – | – | – | – | – |
| CN(C)C[C@H]1C[C@@H]1c1c[nH]c2c(F)cccc12 (racemic) | 8.00 | < 50 | < 50 | – | – | – |
| CN(C)C[C@H]1C[C@@H]1c1c[nH]c2cccc(F)c12 (racemic) | 7.23 | < 50 | < 50 | – | – | – |
| CN(C)C[C@@H]1C[C@@H]1c1c[nH]c2ccc(C#N)cc12 [listing 3 of 3 here] | 7.77 | – | – | – | – | – |
